# Source: PMC12166061, “Crystallographic fragment screening reveals ligand hotspots in TRIM21 PRY-SPRY domain” (Communications Chemistry, 2025)
# Like-named read-outs stand apart in the source and are kept apart here.
# Experiments:
# Type in all cases: binding
# [1] = target: T1, murine TRIM21 PRY-SPRY domain (Mus musculus, UniProt Q62191); assay: Differential scanning fluorimetry (DSF, ΔTm), mouse TRIM21 PRY-SPRY domain
# T1 construct: mouse TRIM21 PRY-SPRY domain (residues V291-M470, UniProt-ID: Q62191); made in house; host or cells: E. coli BL21(DE3)
# T1 sequence (Q62191 291-470): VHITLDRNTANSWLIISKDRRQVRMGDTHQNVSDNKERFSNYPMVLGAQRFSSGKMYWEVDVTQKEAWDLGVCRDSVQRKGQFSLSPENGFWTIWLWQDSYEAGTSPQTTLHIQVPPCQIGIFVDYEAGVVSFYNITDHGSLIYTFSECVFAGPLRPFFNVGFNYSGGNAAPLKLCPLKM
# Method: (§1) Briefly, recombinant murine and human TRIM21 PRY-SPRY domain at a concentration of 8 μM were mixed with 2 mM compound in their respective SEC buffer. SYPRO Orange (5000×, Invitrogen) was added as a fluorescence probe (1 µl per mL). Subsequently, temperature-dependent protein unfolding profiles were measured using the QuantStudio™ 5 realtime PCR machine (Thermo Fisher). Excitation and emission filters were set to 465 nm and 590 nm, respectively. The temperature was raised with a step rate of 3 °C per minute. Data points were analysed with the internal software (Thermal Shift SoftwareTM Version 1.4, Thermo Fisher) using the Boltzmann equation to determine the inflection point of the transition curve.
# [2] = target: T2, human TRIM21 PRY-SPRY domain (Homo sapiens, UniProt P19474); assay: Differential scanning fluorimetry (DSF, ΔTm), human TRIM21 PRY-SPRY domain
# T2 construct: Human TRIM21 PRY-SPRY domain (residues V287-I465, UniProt-ID: P19474); His6 (N, cleaved yes); SUMO (N, cleaved yes); made in house; host or cells: E. coli BL21(DE3)
# Method: as §1
# His-mTRIM21 PRYSPRY = target: T3, His-mTRIM21 PRYSPRY (Mus musculus, UniProt Q62191); assay: SPR fragment screening and dose response, mouse TRIM21 PRY-SPRY
# T3 construct: mouse TRIM21 PRY-SPRY domain (residues V291-M470, UniProt-ID: Q62191); made in house; host or cells: E. coli BL21(DE3)
# T3 sequence (Q62191 291-470): T1 sequence (Q62191 291-470)
# Method: (§2) His-mTRIM21 PRYSPRY and His-SUMO-hTRIM21 PRY-SPRY were immobilized onto flow channels (FC) FC2, FC3, and FC4 of a Series S sensor chip NTA (Cytiva). […] Proteins (10–20 µg mL^−1 in HBS-P+) were injected at 10 µL min^−1 to achieve response levels of 3500–4300 RU for mTRIM21 and 3600–4000 RU for hTRIM21. Flow channel 1 (FC1) was used as a reference surface. Surface deactivation and nickel stripping were achieved using 1 M ethanolamine and 350 mM ethylenediaminetetraacetic acid (EDTA), respectively.
# (§3) Fragment screening was conducted by injecting 500 µM fragments diluted in running buffer (HBS-P+ with 1 mM TCEP and 2% (v/v) dimethyl sulfoxide (DMSO)) over all flow-channels for 30 s at 30 µL/min^−1. To account for surface drift, 50 µM of a control compound (Suramin) was injected every 15 fragment injections, and blank injections were performed every 5 fragments. Responses were analyzed by blank subtraction, reference subtraction (FC1), solvent correction, molecular weight adjustment, and drift correction using Biacore T200 Evaluation Software v3.2.1. The binding threshold for fragment hits was set based on the Suramin-binding response level.
# The data was solvent-corrected, reference-subtracted (FC1), and blank-subtracted using the T200 Evaluation Software v3.2.1. Sensorgrams were subsequently replotted using Graphpad v.9 software.
# [3] = target: T4, His-SUMO-hTRIM21 PRY-SPRY (Homo sapiens, UniProt P19474); assay: SPR fragment screening, human TRIM21 PRY-SPRY
# T4 construct: Human TRIM21 PRY-SPRY domain (residues V287-I465, UniProt-ID: P19474); made in house; host or cells: E. coli BL21(DE3)
# Method: as §2, §3
# [4] = single dose 500 µM fragment, relative response, suramin reference threshold 100 relative RU
# T4 sequence (P19474 287-465): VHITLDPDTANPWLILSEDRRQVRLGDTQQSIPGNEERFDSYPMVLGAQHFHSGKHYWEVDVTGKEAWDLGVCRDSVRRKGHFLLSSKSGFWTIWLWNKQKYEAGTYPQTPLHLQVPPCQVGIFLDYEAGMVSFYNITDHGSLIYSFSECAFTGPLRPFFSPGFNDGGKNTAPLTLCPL
# T2 sequence (P19474 287-465): as above
Compound,"Tm-shift mTRIM21 ([1]; 2 mM compound, 8 μM protein) [°C]","Tm-Shift hTRIM21 ([2]; 2 mM compound, 8 μM protein) [°C]",SPR mTRIM21 (Response) (His-mTRIM21 PRYSPRY; [4]),"SPR hTRIM21 (Response) [3, 4]",Tm-shift mTRIM21 [1] [°C],Tm-Shift hTRIM21 [2] [°C],SPR mTRIM21 (Response) (His-mTRIM21 PRYSPRY),SPR hTRIM21 (Response) [3]
CCc1nnc(NC(=O)C2CCCO2)s1 (centres unmarked) [Fragment Z26823525],-0.2,-0.4,54.46,48.81,,,,
CCCn1c(NC(=O)CC)nc2ccccc21 [Fragment Z29077827],-0.6,-0.7,54.53,48.46,,,,
CCCc1cc(=O)oc2cc(OC(C)=O)ccc12 [Fragment Z29634868],,,78.57,95.03,,,,
CCC(=O)Nc1nc(C)cs1 [Fragment Z30820160],,,,,-0.5,-0.2,15.6,46.05
O=C(c1ccc2c(c1)OCO2)N1CCCCCC1 [Fragment Z31432226],-0.6,-0.8,,,,,,
COCC(=O)NCc1ccccc1 [Fragment Z31478538],-0.3,-0.3,37.9,38.23,,,,
O=C(c1ccco1)N1CCN(C(=O)C2CC2)CC1 [Fragment Z32327641],-0.2,0,37.82,35.48,,,,
O=C(NC1CC1)c1ccc2c(c1)OCO2 [Fragment Z32367954],,,,,-0.3,-0.6,59.37,68.73
Cc1cccc(C(=O)N2CCC(C(N)=O)CC2)c1 [Fragment Z32400357],-0.4,-0.1,57.58,52.75,,,,
CS(=O)(=O)NCCc1ccccc1 [Fragment Z45617795],-0.3,-0.2,50.84,53.67,,,,
CS(=O)(=O)NCCc1ccc(F)cc1 [Fragment Z45705015],-0.5,-0.2,46.34,48.3,,,,
CC(=O)NCCc1ccccc1C [Fragment Z52314092],-0.3,-0.4,79.62,75.76,,,,
O=C(O)COc1ccc(F)cc1 [Fragment Z56978034],,,,,-0.2,0,107.1,99.74
CC(=O)Nc1ccc(CN2CCOCC2)cc1 [Fragment Z57450788],0,0.4,64.68,43.78,,,,
O=C(CN1CCCC1=O)Nc1nccs1 [Fragment Z79432418],,,,,-0.4,-0.3,63.39,61.55
O=C(O)C1CCCN(C(=O)Cc2ccc(F)cc2)C1 (centres unmarked) [Fragment Z85893853],-0.4,-0.1,60.46,49.09,,,,
Cc1nc2[nH]c(C(C)C)cc(=O)n2n1 [Fragment Z111634612],-0.4,-0.4,63.45,61.58,,,,
CS(=O)(=O)Cc1nc2ccccc2[nH]1 [Fragment Z126932614],-0.1,-0.2,65.26,80.74,,,,
